Results taken from patent US20250197384A1, “AZOLE COMPOUND AND ANTIFUNGAL AGENT” (NIHON NOHYAKU CO., LTD., priority 2022, published 2025).
In brackets after ≈: the same amount, converted by molar mass. Values belong to the compound of their own block, whether it stands above or below them.

Assays:
[1] = test system: Aspergillus fumigatus TIMM0063; experiment: In vitro anti-Aspergillus activity test; type: cell-based; conditions: for A. fumigatus (MIC): 80% or more inhibition, unit inferred
Protocol: Aspergillus fumigatus TIMM0063 was used as the strain. The test fungi were cultured on a Potato dextrose agar slant medium at 35° C. for 4 days, and then sterilized saline containing 0.1% (v/v) Tween 80 was added to release the conidia. This conidial suspension was filtered through sterile gauze, and the number of conidia was counted using a hemocytometer. The same solution was adjusted to a conidial concentration of 1×10^6 conidia/mL, and this was used as an inoculum. Each compound was dissolved in dimethyl sulfoxide to a predetermined concentration, and diluted 50-fold with 0.165 M MOPS buffered RPMI 1640 liquid medium, and each diluted solution was dispensed into a 96-well microplate by each 100 μL. The inoculum was diluted 50-fold with 0.165 M MOPS buffered RPMI 1640 liquid medium containing 20% alamar Blue™, and the diluted solution was inoculated into the 96-well microplate containing the compound by each 100 μL (final inoculum amount 1.0×10^4 conidia/mL). After static culture at 35° C. for 48 hr, the degree of color development of the alamar Blue™ was measured using a microplate reader (O.D. 570-595 nm), and the minimum concentration showing 80% or more inhibition was defined as the minimum inhibitory concentration (MIC).

[2] = test system: Candida albicans NBRC1270; experiment: In vitro anti-Candida activity test; type: cell-based; conditions: for C. albicans (MIC): 80% or more inhibition, unit inferred
Protocol: Candida albicans NBRC1270 was used as the strain. The test fungi were cultured on a Sabouraud dextrose agar slant medium at 35° C. for 24 hr, and then suspended in sterilized saline. The number of cells in this suspension was counted using a hemocytometer, and the same suspension was adjusted to a cell concentration of 1.5×10^5 cells/mL, and this was used as an inoculum. Each compound was dissolved in dimethyl sulfoxide to a predetermined concentration, and diluted 50-fold with 0.165 M MOPS buffered RPMI 1640 liquid medium, and each diluted solution was dispensed into a 96-well microplate by each 100 μL. The inoculum was diluted 50-fold with 0.165 M MOPS buffered RPMI 1640 liquid medium containing 20% alamar Blue™, and the diluted solution was inoculated into the 96-well microplate containing the compound by each 100 μL (final inoculum amount 1.5×10^3 cells/mL). After static culture at 35° C. for 24 hr, the degree of color development of the alamar Blue™ was measured using a microplate reader (O.D. 570-595 nm), and the minimum concentration showing 80% or more inhibition was defined as the minimum inhibitory concentration (MIC).

[3] = Table 22, 35° C. for 48 hr, alamar Blue, minimum concentration showing 80% or more inhibition
[4] = Table 22, 35° C. for 24 hr, alamar Blue, minimum concentration showing 80% or more inhibition

A. fumigatus (MIC) ([1]; Table 24, 35° C. for 48 hr): 0.005 µg/mL
C. albicans (MIC) ([2]; Table 24, 35° C. for 24 hr): 0.0025 µg/mL
Structure (SMILES): CC(C)CON=Cc1cnc(C2CSC(=C(C#N)n3cncn3)S2)c(Cl)c1 (racemic) [compound 143]

A. fumigatus (MIC) ([1]; Table 24, 35° C. for 48 hr): 0.005 µg/mL
C. albicans (MIC) ([2]; Table 24, 35° C. for 24 hr): 0.01 µg/mL
Structure (SMILES): CCCON=Cc1cnc(C2CSC(=C(C#N)n3cncn3)S2)c(F)c1 (racemic) [compound 144]

A. fumigatus (MIC) ([1]; Table 25, 35° C. for 48 hr): 0.01 µg/mL
C. albicans (MIC) ([2]; Table 25, 35° C. for 24 hr): 0.005 µg/mL
Structure (SMILES): N#C/C(=C1/SCC(c2ncc(NC(=O)OCC3(F)CC3)cc2Cl)S1)n1cncn1 (racemic) [compound 150]

A. fumigatus (MIC) ([1]; Table 25, 35° C. for 48 hr): 0.01 µg/mL
C. albicans (MIC) ([2]; Table 25, 35° C. for 24 hr): 0.0025 µg/mL
Structure (SMILES): N#C/C(=C1/SCC(c2ncc(NC(=O)OCC3CC3(Cl)Cl)cc2Cl)S1)n1cncn1 (racemic) [compound 151]

MIC ([1]; Aspergillus fumigatus, Table 22, 35° C. for 48 hr, alamar Blue, minimum concentration showing 80% or more inhibition, read-out: minimum inhibitory concentration against various fungi (MIC) A. fumigatus): 0.005 µg/mL (≈ 0.0127 µM)
MIC ([2]; Candida albicans, Table 22, 35° C. for 24 hr, alamar Blue, minimum concentration showing 80% or more inhibition, read-out: minimum inhibitory concentration against various fungi (MIC) C. albicans): 0.025 µg/mL (≈ 0.0637 µM)
Structure (SMILES): CCOC(=O)Nc1cnc([C@@H]2CS/C(=C(/C#N)n3cncn3)S2)c(F)c1 [Compound No. 8, ethyl (R,E)-(6-{2-[cyano(1H-1,2,4-triazol-1-yl)methylene]-1,3-dithiolan-4-yl}-5-fluoropyridin-3-yl)carbamate]

minimum inhibitory concentration against various fungi (MIC) A. fumigatus [1, 3]: 0.01 µg/mL (≈ 0.0238 µM)
minimum inhibitory concentration against various fungi (MIC) C. albicans [2, 4]: 0.005 µg/mL (≈ 0.0119 µM)
Structure (SMILES): CC1(C)OCC(c2cnc(C3CS/C(=C(/C#N)n4ccnc4)S3)c(Cl)c2)O1 (centres unmarked) [compound 5]

minimum inhibitory concentration against various fungi (MIC) A. fumigatus [1, 3]: 0.005 µg/mL (≈ 0.0127 µM)
minimum inhibitory concentration against various fungi (MIC) C. albicans [2, 4]: 0.013 µg/mL (≈ 0.0329 µM)
Structure (SMILES): COC(=O)Nc1cnc([C@@H]2CS/C(=C(/C#N)n3cncn3)S2)c(Cl)c1 [compound 9]

minimum inhibitory concentration against various fungi (MIC) A. fumigatus [1, 3]: 0.005 µg/mL (≈ 0.011 µM)
minimum inhibitory concentration against various fungi (MIC) C. albicans [2, 4]: 0.0025 µg/mL (≈ 0.0055 µM)
Structure (SMILES): N#C/C(=C1/SCC(c2ncc(NC(=O)OCc3ccccc3)cc2F)S1)n1cncn1 (centres unmarked) [compound 13]

minimum inhibitory concentration against various fungi (MIC) A. fumigatus [1, 3]: 0.005 µg/mL (≈ 0.0106 µM)
minimum inhibitory concentration against various fungi (MIC) C. albicans [2, 4]: 0.0013 µg/mL (≈ 0.00276 µM)
Structure (SMILES): N#C/C(=C1/SCC(c2ncc(NC(=O)OCc3ccccc3)cc2Cl)S1)n1cncn1 (centres unmarked) [compound 14]

minimum inhibitory concentration against various fungi (MIC) A. fumigatus [1, 3]: 0.005 µg/mL (≈ 0.0106 µM)
minimum inhibitory concentration against various fungi (MIC) C. albicans [2, 4]: 0.0013 µg/mL (≈ 0.00277 µM)
Structure (SMILES): N#C/C(=C1/SCC(c2ncc(NC(=O)OCc3ccccc3)cc2Cl)S1)n1ccnc1 (centres unmarked) [compound 17]

minimum inhibitory concentration against various fungi (MIC) A. fumigatus [1, 3]: 0.01 µg/mL (≈ 0.0276 µM)
minimum inhibitory concentration against various fungi (MIC) C. albicans [2, 4]: 0.05 µg/mL (≈ 0.138 µM)
Structure (SMILES): CO/N=C/c1cnc(C2CS/C(=C(/C#N)n3cncn3)S2)c(F)c1 (centres unmarked) [compound 18]

minimum inhibitory concentration against various fungi (MIC) A. fumigatus [1, 3]: 0.01 µg/mL (≈ 0.0266 µM)
minimum inhibitory concentration against various fungi (MIC) C. albicans [2, 4]: 0.013 µg/mL (≈ 0.0345 µM)
Structure (SMILES): CCO/N=C/c1cnc(C2CS/C(=C(/C#N)n3cncn3)S2)c(F)c1 (centres unmarked) [compound 20]

minimum inhibitory concentration against various fungi (MIC) A. fumigatus [1, 3]: 0.005 µg/mL (≈ 0.0114 µM)
minimum inhibitory concentration against various fungi (MIC) C. albicans [2, 4]: 0.0006 µg/mL (≈ 0.00137 µM)
Structure (SMILES): N#C/C(=C1/SCC(c2ncc(/C=N/OCc3ccccc3)cc2F)S1)n1cncn1 (centres unmarked) [compound 22]

minimum inhibitory concentration against various fungi (MIC) A. fumigatus [1, 3]: 0.005 µg/mL (≈ 0.011 µM)
minimum inhibitory concentration against various fungi (MIC) C. albicans [2, 4]: 0.0013 µg/mL (≈ 0.00286 µM)
Structure (SMILES): N#C/C(=C1/SCC(c2ncc(/C=N/OCc3ccccc3)cc2Cl)S1)n1ccnc1 (centres unmarked) [compound 26]

A. fumigatus (MIC) ([1]; Table 23, 35° C. for 48 hr): 0.01 µg/mL
C. albicans (MIC) ([2]; Table 23, 35° C. for 24 hr): 0.01 µg/mL
Structure (SMILES): N#C/C(=C1/SCC(c2ncc(COC3CCCCO3)cc2Cl)S1)n1ccnc1 (centres unmarked) [compound 28, (E)-2-[4-(3-chloro-5-{[(tetrahydro-2H-pyran-2-yl)oxy]methyl}pyridin-2-yl)-1,3-dithiolan-2-ylidene]-2-(1H-imidazol-1-yl)acetonitrile]

A. fumigatus (MIC) ([1]; Table 23, 35° C. for 48 hr): 0.01 µg/mL
C. albicans (MIC) ([2]; Table 23, 35° C. for 24 hr): 0.005 µg/mL
Structure (SMILES): N#C/C(=C1/SCC(c2ncc(NC(=O)OCCCl)cc2Cl)S1)n1ccnc1 (centres unmarked) [compound 66]

A. fumigatus (MIC) ([1]; Table 23, 35° C. for 48 hr): 0.01 µg/mL
C. albicans (MIC) ([2]; Table 23, 35° C. for 24 hr): 0.0025 µg/mL
Structure (SMILES): N#C/C(=C1/SCC(c2ncc(NC(=O)OCCCCl)cc2Cl)S1)n1ccnc1 (centres unmarked) [compound 67]

A. fumigatus (MIC) ([1]; Table 23, 35° C. for 48 hr): 0.01 µg/mL
C. albicans (MIC) ([2]; Table 23, 35° C. for 24 hr): 0.01 µg/mL
Structure (SMILES): N#C/C(=C1/SCC(c2ncc(NC(=O)OCc3ccc(F)cn3)cc2Cl)S1)n1cncn1 (centres unmarked) [compound 73]

A. fumigatus (MIC) ([1]; Table 23, 35° C. for 48 hr): 0.01 µg/mL
C. albicans (MIC) ([2]; Table 23, 35° C. for 24 hr): 0.01 µg/mL
Structure (SMILES): N#C/C(=C1/SCC(c2ncc(NC(=O)OCc3ccc(F)nc3)cc2Cl)S1)n1cncn1 (centres unmarked) [compound 74]
